Results as given in patent publication US11440923B2, “Substituted macrocyclic indole derivatives” (Bayer Aktiengesellschaft, priority 2017, dated 2022).
Read-outs that look alike come from different tables or passages of the source.

How the values were obtained:
[1] = test system: SUDHL5 cells; assay: Antiproliferation assay SUDHL5 (Assay 7); type: cell-based; conditions: 72 h, CellTiter-Glo, read-out: Antiproli SUDHL5 IC50 (median)
In short: (§1)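 Cells are plated alongside a time-zero reference plate and held overnight at 37 °C. Treated plates are incubated 72 h, then ATP-based luminescence (CellTiter-Glo) is read. IC50 uses day 0 as baseline and DMSO as untreated control.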

[2] = test system: SUDHL10 cells; assay: Induction of caspase-3/7 activity in SUDHL10 cells (Assay 4); type: cell-based; conditions: caspase-3/7 induction, 3 h, read-out: Caspase SUDHL10 EC50 (median)
In short: (§2)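 Read-out: Caspase-Glo 3/7 luminescence (1 h, 37 °C) after cells, plated overnight, were treated with compounds for 3 h at 37 °C. Signal corrected for cell-free medium background and expressed relative to DMSO control mean.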

[3] = test system: SUDHL5 cells; assay: Induction of cytotoxicity in SUDHL5 cells (Assay 6); type: cell-based
In short: (§3)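 Following overnight seeding at 37 °C, cells are treated with compound for 5 h, after which CellTiter-Glo reagent is added and luminescence measured following a 15 min room-temperature shake.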

[4] = target: MCL-1 (Homo sapiens (Human), UniProt Q07820, K194A/K197A/R201A); assay: Protein-protein interaction assay MCL-1/Noxa BH3 peptide (MCL-1 assay, TR-FRET); type: binding
Sequence of MCL-1 (Q07820 whole entry, looked up, stated change not applied, the tested form may be a part): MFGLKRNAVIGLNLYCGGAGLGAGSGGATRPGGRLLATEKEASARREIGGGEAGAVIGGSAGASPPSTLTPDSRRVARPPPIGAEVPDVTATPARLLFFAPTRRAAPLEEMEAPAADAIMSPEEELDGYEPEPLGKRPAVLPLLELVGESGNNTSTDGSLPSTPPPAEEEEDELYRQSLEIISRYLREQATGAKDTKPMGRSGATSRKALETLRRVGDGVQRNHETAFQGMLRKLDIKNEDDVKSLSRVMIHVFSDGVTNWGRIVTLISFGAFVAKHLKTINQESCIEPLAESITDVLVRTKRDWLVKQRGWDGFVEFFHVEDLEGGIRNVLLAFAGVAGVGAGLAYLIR
Protocol: The dose-dependent inhibition by the compounds described in this invention of the interaction between MCL-1 and the BH3 domain of Noxa (both human) was determined using a steady state binding competition assay with time-resolved fluorescence energy transfer (TR-FRET) readout. For that purpose MCL-1 (amino acids 173-321, N-terminal fused to Maltose Binding Protein (MBP) SEQ ID 1)) and a synthetic Noxa BH3-derived peptide of sequence Biotin-PEG2-PEG2-PAELEVE-Nva-[…]-amide (SEQ ID 2) served as protein receptor and tracer ligand respectively. The MBP-MCL-1 was purchased from Beryllium (Bedford, Mass., USA). The expression and purification of this protein construct has been described elsewhere (DOI:10.1371/journal.pone.0125010). The Noxa BH3-derived peptide can be obtained from e.g. Biosyntan (Berlin, Germany).
For that, 100-fold concentrated DMSO solutions were prepared by serial dilutions (1:3.4) of a 2 mM stock solution in a clear, 384-well microtiter plate (Greiner Bio-One, Frickenhausen, Germany). From there, 50 nl were transferred in a dark test plate (Greiner Bio-One, Frickenhausen, Germany). The assay was initiated by addition of 2 μL of a 2,5-fold concentrated MBP-MCL-1 solution (usually for a 1 nM end concentration in 5 μL reaction volume) in aqueous assay buffer [50 mM Tris/HCl pH 7, 100 mM sodium chloride (NaCl), 50 mM potassium fluoride (KF), 0.005% Tween-20, 2 mM DTT, 0.1% bovine gamma globulin (BGG)] to the compounds in the assay plate. This was followed by a 10-minute incubation step at 22° C. for pre-equilibration of the putative complex between MBP-MCL-1 and the compounds.
The mixture was incubated in the dark for one hour at 22° C. and then overnight at 4° C. The formation of MCL-1/Noxa complexes was determined by measuring the resonance energy transfer of the anti-MBP-Eu-cryptate antibody to the streptavidin-XL665 present in the reaction.
For that purpose, the fluorescence emission at 620 nm and 665 nm after excitation at 330-350 nm was measured in a TR-FRET measuring instrument, for instance a Rubystar or a Pherastar (both from BMG Lab Technologies, Offenburg, Germany) or a Viewlux (Perkin-Elmer). The ratio of the emission at 665 nm and at 622 nm was used as indicator of the amount of MCL-1/NOXA complexes present.
The resulting data (ratio) were normalized, taking 0% inhibition as the mean value of control measurements (usually 32 data points) where all reagents were included. In this case 50 nl DMSO were used instead of compounds. […] IC50 values were determined by regression analysis based on a 4 parameter equation (minimum, maximum, IC50, Hill; Y=Max+(Min−Max)/(1+(X/IC50)^Hill) using the Screener Software (Genedata).

[5] = test system: SUDHL10 cells; assay: Induction of cytotoxicity in SUDHL10 cells (Assay 6); type: cell-based
In short: as §3

[6] = test system: SUDHL5 cells; assay: Induction of caspase-3/7 activity in SUDHL5 cells (Assay 4); type: cell-based; conditions: caspase-3/7 induction, 3 h, read-out: Caspase SUDHL5 EC50 (median)
In short: as §2

[7] = test system: HMC-1-8 cells; assay: Antiproliferation assay HMC-1-8 (Assay 7); type: cell-based
In short: as §1

[8] = test system: AMO-1 cells; assay: Antiproliferation assay AMO-1 (Assay 7); type: cell-based; conditions: 72 h, CellTiter-Glo, read-out: Antiproli AMO-1 IC50 median
In short: as §1

[9] = 5 h, CellTiter-Glo, read-out: Cytotox SUDHL5 IC50 (median)
[10] = 5 h, CellTiter-Glo, read-out: Cytotox SUDHL10 IC50 (median)
[11] = 72 h, CellTiter-Glo; read-out: Antiproli HMC-1-8 IC50 median
[12] = read-out: MCL-1 Assay IC50 (median)

**Q.** Which results are given for `CCc1c2c(nn1C)C1CCCN1CCCCn1c(C(=O)O)c(CCCOc3cccc4cc(F)ccc34)c3ccc(Cl)c-2c31` (racemic) [Example 104, (rac)-17-chloro-1-ethyl-14-{3-[(6-fluoronaphthalen-1-yl)oxy]propyl}-2-methyl-3b,4,5,6,8,9,10,11-octahydro-2H-pyrazolo[3′,4′:8,9]pyrrolo[1′,2′:6,7][1,6]diazacycloundecino[10,11,1-hi]indole-13-carboxylic Acid]?
**A.** IC50 ([1]; Homo sapiens, SU-DHL-5, 72 h): 550 nM; EC50 [2]: 360 nM; IC50 [3, 9]: 340 nM; IC50 ([4]; MCL-1 Assay IC50 (median)): 0.88 nM; IC50 [5, 10]: 430 nM; EC50 ([6]; Homo sapiens, SU-DHL-5, 3 h): 330 nM; IC50 [7, 11]: 2630 nM; IC50 [8]: 543 nM

**Q.** Which results are given for `CCc1c2c(nn1C)C(CCC1CCOCC1)N(C)CCCCn1c(C(=O)O)c(CCCOc3cccc4cc(F)ccc34)c3ccc(Cl)c-2c31` (stereo not shown) [Example 101, 4-chloro-3-ethyl-7-{3-[(6-fluoro-1-naphthyl)oxy]propyl}-2,14-dimethyl-15-[2-(tetrahydro-2H-pyran-4-yl)ethyl]-10,11,12,13,14,15-hexahydro-2H-pyrazolo[3′,4′:8,9][1,6]diazacycloundecino[10,11,1-hi]indole-8-carboxylic Acid]?
**A.** IC50 [1]: 110 nM; EC50 [2]: 51 nM; IC50 [3]: 140 nM; IC50 [4, 12]: 1.8 nM; IC50 [5]: 71 nM; EC50 [6]: 69 nM; IC50 [7, 11]: 1490 nM; IC50 [8]: 95.8 nM

**Q.** `CCc1c2c(nn1C)C(CCCN1CCOCC1)OCCCCn1c(C(=O)O)c(CCCOc3cccc4cc(F)ccc34)c3ccc(Cl)c-2c31` (single isomer, unassigned; enantiomer 2) [Example 67, (−)-4-chloro-3-ethyl-7-{3-[(6-fluoronaphthalen-1-yl)oxy]propyl}-2-methyl-15-[3-(morpholin-4-yl)propyl]-2,10,11,12,13,15-hexahydropyrazolo[4′,3′:9,10][1,6]oxazacycloundecino[8,7,6-hi]indole-8-carboxylic Acid (Enantiomer 2)] was tested. Which IC50 [1] did it give?
**A.** 2100 nM

**Q.** And the EC50 [2]?
**A.** 4400 nM

**Q.** And the IC50 [3, 9]?
**A.** 2600 nM

**Q.** What about the IC50 ([4]; MCL-1 Assay IC50 (median)) of the same molecule?
**A.** 7.8 nM

**Q.** What about the IC50 [5, 10] of the same molecule?
**A.** 4900 nM

**Q.** What about the EC50 [6] of the same molecule?
**A.** 1600 nM

**Q.** And the IC50 [7, 11]?
**A.** > 33000 nM

**Q.** And the IC50 [8]?
**A.** 633 nM

**Q.** What does the source list for `CCc1c2c(nn1C)C1CCCN1CCCCn1c(C(=O)O)c(CCCOc3cccc4cc(F)ccc34)c3ccc(Cl)c-2c31` (single isomer, unassigned; (-)) [Example 106, (−)-17-chloro-1-ethyl-14-{3-[(6-fluoronaphthalen-1-yl)oxy]propyl}-2-methyl-3b,4,5,6,8,9,10,11-octahydro-2H-pyrazolo[3′,4′:8,9]pyrrolo[1′,2′:6,7][1,6]diazacycloundecino[10,11,1-hi]indole-13-carboxylic Acid]?
**A.** IC50 [1]: 2100 nM; EC50 [2]: 4800 nM; IC50 [3, 9]: 3700 nM; IC50 [4, 12]: 17 nM; IC50 [5, 10]: 5700 nM; EC50 [6]: 2700 nM; IC50 [7, 11]: 20600 nM; IC50 [8]: 4450 nM

**Q.** What does the source list for `CCc1c2c(nn1C)C(CCN1CC(F)(F)C1)OCCCCn1c(C(=O)O)c(CCCOc3cccc4cc(F)ccc34)c3ccc(Cl)c-2c31` (racemic) [Example 77, (rac)-4-chloro-(15-rac)-[2-(3,3-difluoroazetidin-1-yl)ethyl]-3-ethyl-7-{3-[(6-fluoronaphthalen-1-yl)oxy]propyl}-2-methyl-2,10,11,12,13,15-hexahydropyrazolo[4′,3′:9,10][1,6]oxazacycloundecino[8,7,6-hi]indole-8-carboxylic Acid]?
**A.** IC50 ([1]; Homo sapiens, SU-DHL-5, 72 h): 71 nM; EC50 ([2]; Homo sapiens, SU-DHL10, 3 h): 37 nM; IC50 ([3]; Homo sapiens, SU-DHL-5, 5 h, 5 h, CellTiter-Glo, read-out: Cytotox SUDHL5 IC50 (median)): 45 nM; IC50 ([4]; MCL-1 Assay IC50 (median)): 1.7 nM; IC50 ([5]; Homo sapiens, SU-DHL10, 5 h, 5 h, CellTiter-Glo, read-out: Cytotox SUDHL10 IC50 (median)): 100 nM; EC50 ([6]; Homo sapiens, SU-DHL-5, 3 h): 31 nM; IC50 ([7]; 72 h, CellTiter-Glo, read-out: Antiproli HMC-1-8 IC50 median): 520 nM; IC50 ([8]; Homo sapiens, AMO1, 72 h): 31.5 nM
